These results are taken from patent US8197794B2, “Core 2 GlcNAc-T inhibitors” (MS Therapeutics Limited, priority 2003, dated 2012).

For assay [1], the target named is T1, Core 2 GlcNAc-T (Homo sapiens, UniProt Q02742).
T1 sequence (Q02742 1-428): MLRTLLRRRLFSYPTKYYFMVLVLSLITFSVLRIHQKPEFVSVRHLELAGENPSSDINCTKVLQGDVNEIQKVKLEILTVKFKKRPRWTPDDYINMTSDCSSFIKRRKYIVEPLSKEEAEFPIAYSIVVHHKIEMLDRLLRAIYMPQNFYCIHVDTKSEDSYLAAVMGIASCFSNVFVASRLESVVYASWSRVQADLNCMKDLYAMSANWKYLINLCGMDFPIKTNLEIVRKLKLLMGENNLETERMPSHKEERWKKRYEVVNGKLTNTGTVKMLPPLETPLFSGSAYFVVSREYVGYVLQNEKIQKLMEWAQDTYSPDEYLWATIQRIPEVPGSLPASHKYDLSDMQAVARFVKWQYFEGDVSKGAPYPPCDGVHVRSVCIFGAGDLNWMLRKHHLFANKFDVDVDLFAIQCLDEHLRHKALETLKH
As to the kind of experiment: Cell based assay of core 2 GlcNAc-T activity in human leukocytes (U937 cells). On the procedure:
(§1) FIG. 17a and FIG. 17b are graphs illustrating the effect of purified trigoneoside IVa, glycoside F, and shatavarin IV on Core 2 GlcNAc-T activity in cell free (FIG. 17a) and cell based (FIG. 17b) assays. In cell free assays heart lysate from BB rats were incubated in the presence, and absence of 20 ng/ml of each compound. After 1 h incubation at 37° C., the activity of core 2 GlcNAc-T was measured, and expressed as pmoles/h/mg protein. The results are the mean of 3-5 separate experiments. In cell based assays human leukocytes (U937 cells) were exposed to 8 pg/ml human recombinant TNF-alpha in the presence and absence of 20 ng/ml of the test compound. After 24 h incubation, the activity of core 2 GlcNAc-T was measured, and expressed as pmoles/h/mg protein.
(§2) For Glucose induction of Core 2 GlcNAc-T leukocytes (U937 cells) are exposed to normal glucose (5.8 mM) or high glucose (15 mM) for 24 hours at 37° C. After incubation, the cells maybe lysed and frozen at −20° C. until used for the measurement of core 2 GlcNAc-T. or used immediately. For TNF-α induction of core 2 GlcNAc-T, Human leukocytes(U937 cells) are exposed to human recombinant TNF-alpha (8 pg/ml) in the presence and absence of test compounds After 24 h incubation, the activity of core 2 GlcNAc-T was measured, and expressed as pmoles/h/mg protein. For cell free assay of core 2 GlcNAc-T heart lysates from either from TNF-alpha over expressing transgenic mice (female, B6.5JL-Tg (TNF) supplied by Taconic-M+B, Bomholtveg 10, 8680 Ry, Denmark) or from BB rats (Festing 1979) are exposed to various concentrations of test compound for 1 h at 37° C. Activity of core 2
(§3) To measure core 2 GlcNAc-T activity, leukocytes were washed in PES, frozen and lysed in 0.9% Triton X-100 at 0° C. The activity of core 2 GlcNAc-T was measured as described previously (Chibber, Diabetes 49, 1724-1730 (2000)). Briefly, the reaction was performed in a reaction mixture containing 50 mM 2(N-morpholino)ethanesulfonic acid (MES, Sigma, Dorset, UK), pH 7.0, 1 mM UDP-6 [′H]-N-acetylglucosamine (16,000 dpm/nmol, NEN Life Science Products, Hounslow, UK), 0.1 M GlcNAc (Sigma, Dorset, Okla.), 1 mM Galβ1-3GalNAcα-p-nitrophenol (Sigma, Dorset, UK) as substrate, and […] of cell lysate (100-200 μg protein) for a final volume of […]. After incubating the mixture for 1 hour at 37° C., the reaction was terminated with 1 ml of ice-cold distilled water and processed on a C18 Sep-Pak column (Waters-Millipore, Watford, UK). After washing the column with 20 ml of distilled water, the product was eluted with 5 ml of methanol. The radioactivity of the samples was counted in a liquid scintillation β-counter (LKB-Wallac, London, UK). Endogenous activity of core 2 GlcNAc-T was measured in the absence of the added acceptor. The specific activity was expressed as pmoles/h/mg of cell protein. In each case, the protein concentration was determined with BioRad protein assay (BioRad, Hertfordshire, UK).

For assay [2], the target named is T2, core 2 GlcNAc-T (Mus musculus, UniProt Q09324).
T2 construct: heart lysates from either from TNF-alpha over expressing transgenic mice; tissue Taconic-M+B (mice) B6.5JL-Tg (TNF); host or cells: heart lysate of TNF-alpha over-expressing transgenic mice
T2 sequence (Q09324 1-428): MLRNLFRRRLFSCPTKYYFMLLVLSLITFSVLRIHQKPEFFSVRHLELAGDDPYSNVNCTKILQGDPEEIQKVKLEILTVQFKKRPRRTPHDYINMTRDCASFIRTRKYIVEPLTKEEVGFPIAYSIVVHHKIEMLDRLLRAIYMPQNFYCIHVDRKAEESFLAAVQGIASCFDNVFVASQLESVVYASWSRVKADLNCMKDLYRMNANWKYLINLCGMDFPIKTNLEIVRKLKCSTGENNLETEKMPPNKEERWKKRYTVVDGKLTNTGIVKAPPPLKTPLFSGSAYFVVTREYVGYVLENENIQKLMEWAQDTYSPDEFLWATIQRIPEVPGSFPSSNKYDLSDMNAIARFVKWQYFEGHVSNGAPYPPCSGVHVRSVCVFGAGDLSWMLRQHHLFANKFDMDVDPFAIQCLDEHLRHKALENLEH
As to the kind of experiment: Cell free assay of core 2 GlcNAc-T on heart lysates of TNF-α mice. Format: biochemical. On the procedure:
as §2
(§4) GlcNAc-T is measured, and expressed as pmoles/h/mg protein.
as §3

For assay [3], the target named is core 2 GlcNAc-T (Rattus norvegicus, UniProt Q64165). As to the kind of experiment: Cell free assay of core 2 GlcNAc-T on heart lysates of BB rats. Format: biochemical. On the procedure: as §1
core 2 GlcNAc-T (Rattus norvegicus, UniProt Q64165), sequence (Q64165 entry or part of it): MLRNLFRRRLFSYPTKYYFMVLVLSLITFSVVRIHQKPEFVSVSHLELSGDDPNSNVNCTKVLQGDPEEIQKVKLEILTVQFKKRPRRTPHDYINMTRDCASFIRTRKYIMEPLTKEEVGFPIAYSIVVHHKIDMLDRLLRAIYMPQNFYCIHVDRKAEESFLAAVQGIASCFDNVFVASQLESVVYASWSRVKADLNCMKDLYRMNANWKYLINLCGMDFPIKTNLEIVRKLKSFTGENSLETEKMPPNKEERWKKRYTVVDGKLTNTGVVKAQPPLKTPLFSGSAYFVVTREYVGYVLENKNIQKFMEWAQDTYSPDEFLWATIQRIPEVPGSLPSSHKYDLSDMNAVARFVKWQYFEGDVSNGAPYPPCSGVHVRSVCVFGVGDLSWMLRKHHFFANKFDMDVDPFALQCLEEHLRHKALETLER
For Glucose induction of Core 2 GlcNAc-T leukocytes (U937 cells) are exposed to normal glucose (5.8 mM) or high glucose (15 mM) for 24 hours at 37° C. After incubation, the cells maybe lysed and frozen at −20° C. until used for the measurement of core 2 GlcNAc-T. or used immediately. For TNF-α induction of core 2 GlcNAc-T, Human leukocytes(U937 cells) are exposed to human recombinant TNF-alpha (8 pg/ml) in the presence and absence of test compounds After 24 h incubation, the activity of core 2 GlcNAc-T was measured, and expressed as pmoles/h/mg protein. […]
as §4
To measure core 2 GlcNAc-T activity, leukocytes were washed in PES, frozen and lysed in 0.9% Triton X-100 at 0° C. The activity of core 2 GlcNAc-T was measured as described previously (Chibber, Diabetes 49, 1724-1730 (2000)). […] The radioactivity of the samples was counted in a liquid scintillation β-counter (LKB-Wallac, London, UK). Endogenous activity of core 2 GlcNAc-T was measured in the absence of the added acceptor. The specific activity was expressed as pmoles/h/mg of cell protein. In each case, the protein concentration was determined with BioRad protein assay (BioRad, Hertfordshire, UK).

Assay [4] addresses T1, Core 2 GlcNAc-T. The assay is described as follows: Core 2 GlcNAc-T inhibition, assay system not given. Format: biochemical. On the procedure:
as §3

[5] abbreviates: read-out: Approximate Ic50 values, Cell based assay.
Where [6] appears, read: heart lysates of TNF-α mice, read-out: Approximate Ic50 values, Cell free assay.

Where two headings read alike, the source gives them in different places.

Take `C[C@@H]1CC[C@@]2(OC1)O[C@H]1C[C@H]3[C@@H]4CC=C5C[C@@H](O[C@@H]6O[C@H](CO)[C@@H](O[C@@H]7O[C@@H](C)[C@H](O)[C@@H](O)[C@H]7O)[C@H](O)[C@H]6O[C@@H]6O[C@@H](C)[C@H](O)[C@@H](O)[C@H]6O)CC[C@]5(C)[C@H]4CC[C@]3(C)[C@H]1[C@@H]2C` [Dioscin, (3(3,25R)-spirost-5-en-3-yl O-6-deoxy-α-L-mannopyranosyl-(1→2)-046-deoxy-α-L-mannopyranosyl-(1→4)]-β-D-glucopyranoside]: the concentration for half-maximal inhibition (IC50) at Core 2 GlcNAc-T [1] was 75 nM; on core 2 GlcNAc-T [2], 40 nM.

`CC(CCC1(O)OC2CC3C4CC=C5CC(OC6OC(CO)C(OC7OC(CO)C(O)C(O)C7O)C(O)C6OC6OC(C)C(O)C(O)C6O)CCC5(C)C4CCC3(C)C2C1C)COC1OC(CO)C(O)C(O)C1O` [Glycoside F, (3β,25R)-26-(β-D-glucopyranosyloxy)-22-hydroxyfurost-5-en-3-yl O-6-deoxy-α-L-mannopyranosyl-(1→2)-O-[β-D-glucopyranosyl-(1→4)]-β-D-glucopyranoside] displayed an inhibition at 0.022 µM against core 2 GlcNAc-T [3] (at 22 nM in BB rat heart lysate) of 100%.

Regarding `C[C@@H]1CC[C@@]2(OC1)O[C@H]1C[C@H]3[C@@H]4CC=C5C[C@@H](O[C@@H]6O[C@H](CO)[C@@H](O)[C@H](O[C@@H]7O[C@H](CO)[C@@H](O)[C@H](O)[C@H]7O)[C@H]6O[C@@H]6O[C@@H](C)[C@H](O)[C@@H](O)[C@H]6O)CC[C@]5(C)[C@H]4CC[C@]3(C)[C@H]1[C@@H]2C` [Gracillin, (3β,25R)-spirost-5-en-3-yl O-6-deoxy-α-L-mannopyranosyl-(1→2)-O-[β-D-glucopyranosyl-(1→3)]-β-D-glucopyranoside], the results for the IC50 on Core 2 GlcNAc-T [1] (setting [5]) and on core 2 GlcNAc-T [2] (setting [6]) were 2.5 nM and 4.5 nM, respectively.

In the case of `C[C@H](CC[C@@]1(O)O[C@H]2C[C@H]3[C@@H]4CC=C5C[C@@H](O[C@@H]6O[C@H](CO)[C@@H](O[C@@H]7O[C@@H](C)[C@H](O)[C@@H](O)[C@H]7O)[C@H](O)[C@H]6O[C@@H]6O[C@@H](C)[C@H](O)[C@@H](O)[C@H]6O)CC[C@]5(C)[C@H]4CC[C@]3(C)[C@H]2[C@@H]1C)CO[C@@H]1O[C@H](CO)[C@@H](O)[C@H](O)[C@H]1O` [Protodioscin], the concentration for half-maximal inhibition (IC50) is 20 nM at core 2 GlcNAc-T [3] (heart lysates of BB rats, read-out: Approximate Ic50 values, Cell free assay) and roughly 20 nM at core 2 GlcNAc-T [3] (system not restated, values as in Table 9 cell free assay, read-out: IC50). In addition, the “inhibition of Core 2 GlcNAc-T compared to controls” value at Core 2 GlcNAc-T [1] (20 ng/ml, TNF-α treated Human leukocytes (U937 cells)) is on record as “approximately 98.5%”. Also, the activity entry on Core 2 GlcNAc-T [4] (sample prepared from Tribulus terrestris, 97% pure, concentrations of 50 μM) is “no activity”.

On to `C[C@H](CC[C@@]1(O)O[C@H]2C[C@H]3[C@@H]4CC=C5C[C@@H](O[C@@H]6O[C@H](CO)[C@@H](O)[C@H](O[C@@H]7O[C@H](CO)[C@@H](O)[C@H](O)[C@H]7O)[C@H]6O[C@@H]6O[C@@H](C)[C@H](O)[C@@H](O)[C@H]6O)CC[C@]5(C)[C@H]4CC[C@]3(C)[C@H]2[C@@H]1C)CO[C@@H]1O[C@H](CO)[C@@H](O)[C@H](O)[C@H]1O` [Protogracillin], for which the figures for the IC50 at Core 2 GlcNAc-T [1] (setting [5]) and on core 2 GlcNAc-T [2] (setting [6]) were 0.25 nM and 3 nM, respectively.

On to `CC1=C(CC[C@@H](C)CO[C@@H]2O[C@H](CO)[C@@H](O)[C@H](O)[C@H]2O)O[C@H]2C[C@H]3[C@@H]4CC=C5C[C@@H](O[C@@H]6O[C@H](CO)[C@@H](O[C@@H]7O[C@@H](C)[C@H](O)[C@@H](O)[C@H]7O)[C@H](O)[C@H]6O[C@@H]6O[C@@H](C)[C@H](O)[C@@H](O)[C@H]6O)CC[C@]5(C)[C@H]4CC[C@]3(C)[C@@H]12` [Pseudoprotodioscin, (3β,22α,25R)-26-(β-D-glucopyranosyloxy)-furosta-5,20(22)-dien-3-yl O-6-deoxy-α-L-mannopyranosyl (1→2)-046-deoxy-α-L-mannopyranosyl-(1→4)]-[3-D-Glucopyranoside], for which the figures for the IC50 on Core 2 GlcNAc-T [1] (setting [5]) and on core 2 GlcNAc-T [2] (setting [6]) were 50 nM and 35 nM, respectively.

As to `C[C@@H](CC[C@@]1(O)O[C@H]2C[C@H]3[C@@H]4CC[C@@H]5C[C@@H](O[C@@H]6O[C@H](CO)[C@@H](O[C@@H]7O[C@H](CO)[C@@H](O)[C@H](O)[C@H]7O)[C@H](O)[C@H]6O[C@@H]6O[C@@H](C)[C@H](O)[C@@H](O)[C@H]6O)CC[C@]5(C)[C@H]4CC[C@]3(C)[C@H]2[C@@H]1C)CO[C@@H]1O[C@H](CO)[C@@H](O)[C@H](O)[C@H]1O` [Shatavarin I, (3β,5β,22α,25S)-26-(β-D-glucopyranosyloxy)-22-hydroxyfurostan-3-yl O-6-deoxy-α-L-mannopyranosyl-(1-42)-O-[β-D-glucopyranosyl-(1→4)]-β-D-glucopyranoside], the values for the half-inhibitory concentration (IC50) on Core 2 GlcNAc-T [1] (setting [5]) and on core 2 GlcNAc-T [2] (setting [6]) were 0.75 nM and 1 nM, respectively.

Regarding `C[C@@H](CC[C@@]1(O)O[C@H]2C[C@H]3[C@@H]4CC=C5C[C@@H](O[C@@H]6O[C@H](CO)[C@@H](O[C@@H]7O[C@@H](C)[C@H](O)[C@@H](O)[C@H]7O)[C@H](O)[C@H]6O[C@@H]6O[C@@H](C)[C@H](O)[C@@H](O)[C@H]6O)CC[C@]5(C)[C@H]4CC[C@]3(C)[C@H]2[C@@H]1C)CO[C@@H]1O[C@H](CO)[C@@H](O)[C@H](O)[C@H]1O` [Trigonelloside C], the “inhibition of Core 2 GlcNAc-T” value on Core 2 GlcNAc-T [4] (at 2.5 nM, preparation 98.2% pure) amounted to 69%.

Take `C[C@@H](CCC1(O)O[C@H]2C[C@H]3[C@@H]4CC=C5C[C@@H](O[C@@H]6O[C@H](CO)[C@@H](O[C@@H]7O[C@H](CO)[C@@H](O)[C@H](O)[C@H]7O)[C@H](O)[C@H]6O[C@@H]6O[C@@H](C)[C@H](O)[C@@H](O)[C@H]6O)CC[C@]5(C)[C@H]4CC[C@]3(C)[C@H]2[C@@H]1C)CO[C@@H]1O[C@H](CO)[C@@H](O)[C@H](O)[C@H]1O` (stereo partly drawn) [Trigoneoside IVa, (3β,25 S)-26-(β-D-glucopyranosyloxy)-22-hydroxyfurost-5-en-3-yl O-6-deoxy-α-L-mannopyranosyl-(1→2)-O-[β-D-glucopyranosyl-(1→4)]-β-D-glucopyranoside]: the IC50 on Core 2 GlcNAc-T [1] (setting [5]) is 75 nM; on core 2 GlcNAc-T [2] (setting [6]), 0.9 nM; at core 2 GlcNAc-T [2] (in cell free systems, read-out: approximate IC50), 0.25 to 0.9 nM.
